In ChEMBL document CHEMBL3860035, “Isolation and Structure Elucidation of Cytotoxic Saccharothriolides D to F from a Rare Actinomycete Saccharothrix sp. and Their Structure-Activity Relationship” (J Nat Prod, 2016):
Counter-ions that a name gives are not always drawn.

Key:
[1] = Cytotoxicity against human HT1080 cells assessed as reduction cell viability after 72 hrs by WST8-based colorimetric analysis; format: functional; conditions: HT-1080, 72 h
[2] = Cytotoxicity against human HT1080 cells; format: functional, cell-based; conditions: HT-1080

| SMILES | IC50 [1] | IC50 [2] |
| --- | --- | --- |
| C[C@@H]1[C@@H](Nc2ccccc2O)[C@@H](C)C(=O)[C@@H](C)[C@@H](O)[C@H](C)C(=O)O[C@@H]1c1cc(O)cc(O)c1 | 29.2 µM |  |
| C[C@@H]1[C@@H](Nc2ccccc2C(=O)O)[C@@H](C)C(=O)[C@@H](C)[C@@H](O)CC(=O)O[C@@H]1c1cc(O)cc(O)c1 | 66.4 µM |  |
| C[C@@H]1[C@@H](Nc2ccccc2O)[C@@H](C)C(=O)[C@@H](C)[C@@H](O)[C@@H](C)C(=O)O[C@@H]1c1cc(O)cc(O)c1 |  | 13.9 µM |
| COc1cccc2c1C(=O)c1c(O)c3c(c(O)c1C2=O)C[C@@](O)(C(=O)CO)C[C@@H]3O[C@H]1C[C@H](N)[C@H](O)[C@H](C)O1 [DOXORUBICIN HYDROCHLORIDE] | 0.38 µM |  |
